We go through seven compounds from patent US4191753A, “Anti-hypertensive peptide analogs” (University of Miami, priority 1978, dated 1980).

SMILES strings stand for the structures. Where a SMILES comes first, the peptide text is derived from it.

For series [1], the system named is patients. Particulars: cited from earlier work.
The conditions of series [2]: cited from earlier work.
Series [3] addresses T1, human urinary angiotensin converting enzyme (Homo sapiens, UniProt P12821).
T1 construct: human urinary angiotensin converting enzyme, prepared as described by Ryan, J., et al; from tissue; host or cells: human urine
As to the kind of experiment: Inhibition of hydrolysis of [3H]benzoyl-Gly-His-Leu by human urinary angiotensin converting enzyme. Format: biochemical. The conditions noted are these: [3H]benzoyl-Gly-His-Leu 100 μM (approximately one-half of Km), 37° C., 15 min., pH 8.0; read-out: I50. As for the experimental part:
ΔPro^3 -BPP9a, ΔPro^5 -BPP9a, ΔPro^8 -BPP9a, and ΔPro^9 -BPP9a were each compared with BPP9a (<Glu-Trp-Pro-Arg-Pro-Gln-Ile-Pro-Pro; also known as SQ 20,881) for their abilities to inhibit the hydrolysis of [^3 H]benzoyl-Gly-His-Leu by human urinary angiotensin converting enzyme, prepared as described by Ryan, J., et al., Tissue and Cell 10, 555 (1978). A standard amount of enzyme (the amount required to hydrolyze 8% of substrate during the course of incubation at 37° C. for 15 min.) was incubated with [^3 H]benzoyl-Gly-His-Leu in a final reaction volume of 100 μl or 110 μl. The reaction mixture contained 0.05 M Hepes buffer, pH 8.0, 0.1 M NaCl, 0.75 M Na2 SO4, [^3 H]-benzoyl-Gly-His-Leu (100 μM at 10 mCi/mmole, enzyme and varying concentrations of inhibitor, from […]. Net enzyme activity was measured in terms of the rate of formation of [^3 H]benzoyl-glycine (^3 H-hippuric acid). Under the conditions of the assay, the initial substrate concentration is approximately one-half of Km. Results are expressed as I50 values, i.e., the concentration of a given inhibitor required to reduce enzyme activity by half.
These factors include the source of enzyme, its purity, the substrate used and its concentration, and the composition of the assay buffer. […] For example, Cushman, et al., supra, reported an I50 value for BPP9a of approximately 1000 nM, whereas Dorer, F.E., et al., Biochim. Biophys. Acta 429, 220 (1976) reported I50 values in the range 12nM-15nM. The sources of such variations are not known.

Series [4] has as its system guinea pigs. In words: Mean arterial blood pressure of guinea pigs anesthetized with pentobarbital. Format: in vivo, guinea pig. The conditions noted are these: single intravenous injection, 2 mg; for ill effects in test animals: blood pressure reduced to shock levels; for abnormalities in the electrocardiogram: Lead II monitored. As to the method: ΔPro^3 -BPP9a and ΔPro^5 -BPP9a were tested for their ability to reduce mean arterial blood pressure of guinea pigs anesthetized with pentobarbital, an anesthetic thought to activate the renin-angiotensin system. Female guinea pigs (500-700 g body wgt.) of the Ft. Detrick-Hartley strain were injected intraperitoneally with pentobarbital, 30 mg/kg. Tracheostomy was performed, and the animals were ventilated with a small animal respirator. A polyethylene cannula was inserted into a femoral vein, and heparin, 1,000 units, was injected. A second cannula was inserted into a femoral artery for measurement of arterial blood pressure. The arterial cannula was connected to a pressure transducer, and the transducer was connected to a polygraph. Lead II of the electrocardiogram was monitored continuously.
Each of three guinea pigs received a single intravenous injection of ΔPro^3 -BPP9a, 2 mg in 0.25 ml of 0.9% (w/v) NaCl. On average, mean arterial blood pressure fell by 57.2% (81.7 mmHg to 35 mmHg). The maximum reduction was achieved within 15 sec. of injection. Each of seven guinea pigs received a single intravenous injection of ΔPro^5 -BPP9a, 2 mg in 0.25 ml of saline.

The target in series [5] is ACE (Homo sapiens, UniProt P12821). As to the kind of experiment: biochemical.
ACE (Homo sapiens, UniProt P12821), sequence (P12821 30-1306, species assumed): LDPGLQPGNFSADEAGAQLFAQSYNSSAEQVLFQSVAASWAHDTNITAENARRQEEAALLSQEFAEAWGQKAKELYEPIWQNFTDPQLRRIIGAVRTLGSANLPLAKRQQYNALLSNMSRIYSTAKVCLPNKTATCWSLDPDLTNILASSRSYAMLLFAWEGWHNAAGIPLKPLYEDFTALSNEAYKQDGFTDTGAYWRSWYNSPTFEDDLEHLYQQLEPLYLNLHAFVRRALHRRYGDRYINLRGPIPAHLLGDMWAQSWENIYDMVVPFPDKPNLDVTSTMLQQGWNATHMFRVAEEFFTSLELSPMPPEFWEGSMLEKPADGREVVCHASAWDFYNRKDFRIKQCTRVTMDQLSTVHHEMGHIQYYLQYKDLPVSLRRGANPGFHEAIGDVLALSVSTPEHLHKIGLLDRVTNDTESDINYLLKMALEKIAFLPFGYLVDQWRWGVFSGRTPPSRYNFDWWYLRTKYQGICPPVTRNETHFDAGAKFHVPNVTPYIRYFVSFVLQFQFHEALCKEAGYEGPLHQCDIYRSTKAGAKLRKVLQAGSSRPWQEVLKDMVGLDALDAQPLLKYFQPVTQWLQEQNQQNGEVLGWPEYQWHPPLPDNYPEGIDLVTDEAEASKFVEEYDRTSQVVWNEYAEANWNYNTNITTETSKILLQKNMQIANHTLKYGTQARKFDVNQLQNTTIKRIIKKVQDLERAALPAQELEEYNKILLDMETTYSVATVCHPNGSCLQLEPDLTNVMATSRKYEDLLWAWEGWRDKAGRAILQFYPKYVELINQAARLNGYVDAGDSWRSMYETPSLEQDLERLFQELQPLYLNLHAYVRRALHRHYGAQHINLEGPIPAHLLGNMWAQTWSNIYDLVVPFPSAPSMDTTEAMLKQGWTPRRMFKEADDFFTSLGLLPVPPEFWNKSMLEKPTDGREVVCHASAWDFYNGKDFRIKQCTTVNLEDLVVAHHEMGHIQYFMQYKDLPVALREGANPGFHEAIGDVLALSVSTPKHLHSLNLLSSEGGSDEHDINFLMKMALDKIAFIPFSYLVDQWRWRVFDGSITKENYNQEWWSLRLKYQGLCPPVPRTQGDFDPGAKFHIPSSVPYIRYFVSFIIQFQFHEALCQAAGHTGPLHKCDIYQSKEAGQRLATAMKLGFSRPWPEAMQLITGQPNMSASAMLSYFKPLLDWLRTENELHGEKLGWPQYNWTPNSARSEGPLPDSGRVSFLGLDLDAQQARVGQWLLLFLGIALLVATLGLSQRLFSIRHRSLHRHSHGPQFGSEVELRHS
Series [6] has as its target T2, ACE (Oryctolagus cuniculus, UniProt P12822).
T2 sequence (P12822 34-1310): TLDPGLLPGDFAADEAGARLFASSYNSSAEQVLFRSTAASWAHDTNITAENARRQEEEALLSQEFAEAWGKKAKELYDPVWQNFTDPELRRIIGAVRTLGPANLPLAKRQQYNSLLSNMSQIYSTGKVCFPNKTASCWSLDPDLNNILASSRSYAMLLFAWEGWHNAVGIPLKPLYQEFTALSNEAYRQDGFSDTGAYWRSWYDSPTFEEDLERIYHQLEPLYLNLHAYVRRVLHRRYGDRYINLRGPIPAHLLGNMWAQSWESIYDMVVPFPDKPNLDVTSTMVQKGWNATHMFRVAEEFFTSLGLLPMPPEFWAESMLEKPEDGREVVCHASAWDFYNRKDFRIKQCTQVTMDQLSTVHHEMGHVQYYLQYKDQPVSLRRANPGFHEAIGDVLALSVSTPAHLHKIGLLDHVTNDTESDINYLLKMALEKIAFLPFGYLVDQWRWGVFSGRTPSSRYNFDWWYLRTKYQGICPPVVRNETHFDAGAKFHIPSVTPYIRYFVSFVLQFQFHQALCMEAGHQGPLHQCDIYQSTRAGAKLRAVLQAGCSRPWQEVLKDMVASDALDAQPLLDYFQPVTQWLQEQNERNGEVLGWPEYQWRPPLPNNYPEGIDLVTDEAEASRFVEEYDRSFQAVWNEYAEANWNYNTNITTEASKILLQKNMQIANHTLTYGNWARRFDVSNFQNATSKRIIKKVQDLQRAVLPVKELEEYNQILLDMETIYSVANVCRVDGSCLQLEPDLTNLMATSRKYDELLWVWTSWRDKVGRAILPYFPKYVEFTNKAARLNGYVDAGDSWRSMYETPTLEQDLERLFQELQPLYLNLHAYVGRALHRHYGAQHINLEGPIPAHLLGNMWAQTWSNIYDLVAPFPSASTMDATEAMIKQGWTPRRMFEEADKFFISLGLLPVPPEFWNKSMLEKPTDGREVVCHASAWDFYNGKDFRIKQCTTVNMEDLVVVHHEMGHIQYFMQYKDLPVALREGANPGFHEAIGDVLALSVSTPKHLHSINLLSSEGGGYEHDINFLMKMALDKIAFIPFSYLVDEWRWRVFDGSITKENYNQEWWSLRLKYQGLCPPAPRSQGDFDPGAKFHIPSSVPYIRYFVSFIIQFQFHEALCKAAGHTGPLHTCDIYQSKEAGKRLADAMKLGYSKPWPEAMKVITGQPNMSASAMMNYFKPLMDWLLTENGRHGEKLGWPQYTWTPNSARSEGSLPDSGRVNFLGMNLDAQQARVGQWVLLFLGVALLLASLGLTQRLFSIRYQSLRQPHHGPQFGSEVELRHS
Particulars: read-out: I50 reported by Cushman, et al.; literature value; cited from earlier work.

For series [7], the system named is patients with hypertension. Particulars: cited from earlier work.

T1 sequence (P12821 30-1306): as the sequence (P12821 30-1306, species assumed) above

For `C[C@H](CS)C(=O)N1CCCC1C(=O)O` (stereo in doubt) [SQ 14,225, D-2-methyl-3-mercaptopropanoyl-L-proline], the “patients known to benefit from ACE inhibitors who respond adversely” value in series [1] (human, in vivo) was no more than 11%. Also, the oral effectiveness entry in series [1] (oral) is reported as “effective orally”. Besides, the stability in solution entry in series [2] is given as “instability of the drug in solution due to disulfide dimer formation”.

As to `CC[C@H](C)[C@H](NC(=O)[C@H](CCC(N)=O)NC(=O)[C@@H]1CCCN1C(=O)[C@H](CCCNC(=N)N)NC(=O)[C@@H]1CCCN1C(=O)[C@H](Cc1c[nH]c2ccccc12)NC(=O)[C@@H]1CCC(=O)N1)C(=O)N1CC=C[C@H]1C(=O)N1CCC[C@H]1C(=O)O` [ΔPro^8 -BPP9a, <Glu-Trp-Pro-Arg-Pro-Gln-Ile-ΔPro-Pro], in series [3], the IC50 is 60 nM.

For the compound `CC[C@H](C)[C@H](NC(=O)[C@H](CCC(N)=O)NC(=O)[C@@H]1CCCN1C(=O)[C@H](CCCNC(=N)N)NC(=O)[C@@H]1CCCN1C(=O)[C@H](Cc1c[nH]c2ccccc12)NC(=O)[C@@H]1CCC(=O)N1)C(=O)N1CCC[C@H]1C(=O)N1CC=C[C@H]1C(=O)O` [ΔPro^9 -BPP9a, <Glu-Trp-Pro-Arg-Pro-Gln-Ile-Pro-ΔPro], the IC50 in series [3] was determined as 0.15 nM.

As to `CC[C@H](C)[C@H](NC(=O)[C@H](CCC(N)=O)NC(=O)[C@@H]1C=CCN1C(=O)[C@H](CCCNC(=N)N)NC(=O)[C@@H]1CCCN1C(=O)[C@H](Cc1c[nH]c2ccccc12)NC(=O)[C@@H]1CCC(=O)N1)C(=O)N1CCC[C@H]1C(=O)N1CCC[C@H]1C(=O)O` [ΔPro^5 -BPP9a, <Glu-Trp-Pro-Arg-ΔPro-Gln-Ile-Pro-Pro], in series [3], the IC50 was 0.9 nM. Besides, in series [4], the “increase in heart rate” value is listed as 0-10%, the “ill effects in test animals” value is given as “no ill effects” and the “abnormalities in the electrocardiogram” value is on record as “no abnormalities were observed”.

As for `CC[C@H](C)[C@H](NC(=O)[C@H](CCC(N)=O)NC(=O)[C@@H]1CCCN1C(=O)[C@H](CCCNC(=N)N)NC(=O)[C@@H]1C=CCN1C(=O)[C@H](Cc1c[nH]c2ccccc12)NC(=O)[C@@H]1CCC(=O)N1)C(=O)N1CCC[C@H]1C(=O)N1CCC[C@H]1C(=O)O` [ΔPro^3 -BPP9a, <Glu-Trp-ΔPro-Arg-Pro-Gln-Ile-Pro-Pro], the IC50 in series [3] came out at 0.9 nM. In series [4], the “increase in heart rate” value is on record as 0-10%, the “ill effects in test animals” value is recorded as “no ill effects” and the “abnormalities in the electrocardiogram” value was “no abnormalities were observed”.

In turn, `NC(N)=NCCC[C@H](NC(=O)[C@H](Cc1ccccc1)NC(=O)[C@@H]1CCCN1C(=O)[C@H](CO)NC(=O)[C@H](Cc1ccccc1)NC(=O)CNC(=O)[C@@H]1CCCN1C(=O)[C@@H]1CCCN1C(=O)[C@@H](N)CCCN=C(N)N)C(=O)O` [bradykinin, ArgProProGlyPheSerProPheArg] (H-RPPGFSPFR-OH) yielded an IC50 in series [5] of roughly 500 nM.

Regarding `CC[C@H](C)[C@H](NC(=O)[C@H](CCC(N)=O)NC(=O)[C@@H]1CCCN1C(=O)[C@H](CCCNC(=N)N)NC(=O)[C@@H]1CCCN1C(=O)[C@H](Cc1c[nH]c2ccccc12)NC(=O)[C@@H]1CCC(=O)N1)C(=O)N1CCC[C@H]1C(=O)N1CCC[C@H]1C(=O)O` [BPP9a, <Glu-Trp-Pro-Arg-Pro-Gln-Ile-Pro-Pro], the IC50 in series [3] is 28 nM; in series [6], roughly 1000 nM; in series [5], roughly 28 nM. In addition, the “side reactions of the type observed with SQ 14,225, in clinical use of BPP9a” value in series [7] is “have not been encountered previously”.
